Patent US9012397B2 (priority 2011, dated 2015)

Test system: unidentified sting
Design: species or system human
Settings: in vivo

Substance: pGLU-ASN-TRP-LYS-C8 [ZEP3]
- clinical outcome: relief from the itching sensation within a number of minutes
- time until redness disappeared: 2 days
